Measured values published in ChEMBL document CHEMBL1909294, “Translating clinical findings into knowledge in drug safety evaluation--drug induced liver injury prediction system (DILIps)” (PLoS Comput Biol, 2011).

Legend:
Hepatotoxicity [1] = tested on: Hepatotoxicity;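 on HepSE cholecystitis: Cholecystitis-related hepatic side effect score drawn from the DILIps (drug-induced liver injury prediction) training data set; call rule not given here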;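 on HepSE cirrhosis: cirrhosis hepatic side effect score taken from the DILIps (drug-induced liver injury prediction) training set; call rule not given here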;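 on HepSE hepatitis: Hepatitis-related hepatic side effect score taken from the training data of DILIps, a prediction system for drug-induced liver injury; call rule not given here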;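 on HepSE hepatomegaly: hepatic side effect score for hepatomegaly, taken from the training set of the DILIps drug-induced liver injury prediction system; call rule not given here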;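 on HepSE liver fatty: hepatic side effect score for fatty liver, taken from the DILIps training set for predicting drug-induced liver injury; call rule not given here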;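 on HepSE liver function tests abnormal: hepatic side effect score taken from the DILIps (drug-induced liver injury prediction system) training data, here covering abnormal liver function test findings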
Hepatotoxicity [2] = tested on: Hepatotoxicity; remark: listed apart in the source;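 on HepSE cholecystitis: Cholecystitis-related hepatic side effect score drawn from the DILIps (drug-induced liver injury prediction) training data set; call rule not given here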;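 on HepSE cirrhosis: cirrhosis hepatic side effect score taken from the DILIps (drug-induced liver injury prediction) training set; call rule not given here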;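 on HepSE hepatitis: Hepatitis-related hepatic side effect score taken from the training data of DILIps, a prediction system for drug-induced liver injury; call rule not given here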;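 on HepSE hepatomegaly: hepatic side effect score for hepatomegaly, taken from the training set of the DILIps drug-induced liver injury prediction system; call rule not given here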;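 on HepSE liver fatty: hepatic side effect score for fatty liver, taken from the DILIps training set for predicting drug-induced liver injury; call rule not given here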;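 on HepSE liver function tests abnormal: hepatic side effect score taken from the DILIps (drug-induced liver injury prediction system) training data, here covering abnormal liver function test findings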
Hepatotoxicity [3] = tested on: Hepatotoxicity; remark: listed apart in the source;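 on HepSE cholecystitis: Cholecystitis-related hepatic side effect score drawn from the DILIps (drug-induced liver injury prediction) training data set; call rule not given here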;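 on HepSE cirrhosis: cirrhosis hepatic side effect score taken from the DILIps (drug-induced liver injury prediction) training set; call rule not given here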;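 on HepSE hepatitis: Hepatitis-related hepatic side effect score taken from the training data of DILIps, a prediction system for drug-induced liver injury; call rule not given here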;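 on HepSE hepatomegaly: hepatic side effect score for hepatomegaly, taken from the training set of the DILIps drug-induced liver injury prediction system; call rule not given here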;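 on HepSE liver fatty: hepatic side effect score for fatty liver, taken from the DILIps training set for predicting drug-induced liver injury; call rule not given here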;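 on HepSE liver function tests abnormal: hepatic side effect score taken from the DILIps (drug-induced liver injury prediction system) training data, here covering abnormal liver function test findings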
Hepatotoxicity [4] = tested on: Hepatotoxicity; remark: listed apart in the source;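 on HepSE cholecystitis: Cholecystitis-related hepatic side effect score drawn from the DILIps (drug-induced liver injury prediction) training data set; call rule not given here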;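 on HepSE hepatitis: Hepatitis-related hepatic side effect score taken from the training data of DILIps, a prediction system for drug-induced liver injury; call rule not given here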;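 on HepSE hepatomegaly: hepatic side effect score for hepatomegaly, taken from the training set of the DILIps drug-induced liver injury prediction system; call rule not given here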;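 on HepSE liver fatty: hepatic side effect score for fatty liver, taken from the DILIps training set for predicting drug-induced liver injury; call rule not given here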;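 on HepSE liver function tests abnormal: hepatic side effect score taken from the DILIps (drug-induced liver injury prediction system) training data, here covering abnormal liver function test findings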
Hepatotoxicity [5] = tested on: Hepatotoxicity; remark: listed apart in the source
Hepatotoxicity [6] = tested on: Hepatotoxicity; remark: listed apart in the source
Hepatotoxicity [7] = tested on: Hepatotoxicity; remark: listed apart in the source
Hepatotoxicity [8] = tested on: Hepatotoxicity; remark: listed apart in the source
Hepatotoxicity [9] = tested on: Hepatotoxicity; remark: listed apart in the source
Hepatotoxicity [10] = tested on: Hepatotoxicity; remark: listed apart in the source
Hepatotoxicity [11] = tested on: Hepatotoxicity; remark: listed apart in the source
Hepatotoxicity [12] = tested on: Hepatotoxicity; remark: listed apart in the source
Hepatotoxicity [13] = tested on: Hepatotoxicity; remark: listed apart in the source
Hepatotoxicity [14] = tested on: Hepatotoxicity; remark: listed apart in the source

SMILES	HepSE_liver function tests abnormal (Hepatotoxicity [1])	HepSE_hepatitis (Hepatotoxicity [2])	HepSE_liver fatty (Hepatotoxicity [3])	HepSE_bilirubinemia (Hepatotoxicity [4])	HepSE_hepatomegaly (Hepatotoxicity [5])	HepSE_cholecystitis (Hepatotoxicity [6])	HepSE_cholelithiasis (Hepatotoxicity [7])	HepSE_cirrhosis (Hepatotoxicity [8])	HepSE_elevated liver function tests (Hepatotoxicity [9])	HepSE_liver disease (Hepatotoxicity [10])	HepSE_hepatic necrosis (Hepatotoxicity [11])	HepSE_hepatic failure (Hepatotoxicity [12])	HepSE_Combined Scores (Hepatotoxicity [13])	HepSE_jaundice (Hepatotoxicity [14])	HepSE_liver function tests abnormal (Hepatotoxicity [1]; Liver)	HepSE_elevated liver function tests (Hepatotoxicity [9]; Liver)
CCn1nc(C(=O)O)c(=O)c2cc3c(cc21)OCO3 [CINOXACIN]	0	0	0	0	0	0	0	0	0	0	0	0	0	0		
COc1cc(N)c(Cl)cc1C(=O)NC1CCN(CCCOc2ccc(F)cc2)CC1OC (centres undefined) [CISAPRIDE]	0	1	0	0	0	0	0	0	0	0	0	0	1	0		
CN(C)CCCC1(c2ccc(F)cc2)OCc2cc(C#N)ccc21 (centres undefined) [CITALOPRAM]	0	1	0	1	0	1	1	0	0	0	1	1	7	1		
CC[C@H]1OC(=O)[C@H](C)[C@@H](O[C@H]2C[C@@](C)(OC)[C@@H](O)[C@H](C)O2)[C@H](C)[C@@H](O[C@@H]2O[C@H](C)C[C@H](N(C)C)[C@H]2O)[C@](C)(OC)C[C@@H](C)C(=O)[C@H](C)[C@@H](O)[C@]1(C)O [CLARITHROMYCIN]	0	1	0	0	1	0	0	0	0	0	0	1	4	1		
CN1CCC[C@@H]1CCO[C@](C)(c1ccccc1)c1ccc(Cl)cc1 [CLEMASTINE]		0	0	0	0	0	0	0		0	0	0	0	0	0	0
CCC[C@@H]1C[C@@H](C(=O)N[C@@H]([C@H]2O[C@H](SC)[C@H](O)[C@@H](O)[C@H]2O)[C@H](C)Cl)N(C)C1 [CLINDAMYCIN]	0	0	0	0	0	0	0	0	0	0	0	0	1	1		
